Test results reported in patent US20020146441A1, “Selection method for cosmetic auxiliaries” (priority 2000, published 2002).

Key:
[1] = O/W emulsion, substantivity on skin model (water resistance, watering test); type: physicochemical, sheep; conditions: amount found after 20 min watering relative to unwatered sample, isopropanol extract, GC, converted to the logarithm
Protocol: (§1) The amounts of the cosmetic auxiliaries found in the phase to be cared for are compared with the amount found in the cosmetic phase (relative partition parameters). These values are converted to the logarithm and entered as activity values into the regression table (Table 1). Using various methods, regression against the COSMO-RS and other descriptors (e.g. clogP and boiling point) are carried out, and the best correlation according to the validation is selected. In all of the regression equations belonging to the examples, cosmetic auxiliaries with a deviation in the regression of more than +/−0.43 log units from the experimental value are defined as outliers. […] In the next step, the COSMO-RS regression equation is linked to the regression table which contains all descriptors for all cosmetic auxiliaries. The use of the COSMO-RS regression equation on all cosmetic auxiliaries gives the prediction for the logarithmic relative partition parameters for all cosmetic auxiliaries. These values are then used for the manufacture of cosmetic products. The procedure is analogous in all examples.
(§2) The example reflects the substantivity of a sunscreen emulsion. The emulsion is applied to a skin model (sheep shorn wool, because of the content of wool grease), and the substantivity thereto is tested using a watering test. The emulsion is prepared in the generally customary manner. The UV filters and a mixture of 39 odorants are incorporated in accordance with the formulations. 0.10 g of this emulsion is applied to a section of the skin model 5×10 cm in size. After drying for 30 min, the sample is stirred for 20 min in 4.5 l of water at room temperature. The sample is left to dry for 12 hours and then boiled for 10 min with 60 ml of isopropanol in a closed system. The extract is transferred to a measuring flask and made up to 100 ml. 0.10 g of the emulsion is applied to another section of the skin model. After drying for 12 hours, it is extracted with isopropanol as above. The extracts are injected in equal amounts one after the other into a GC injector, and gas chromatograms are recorded. The amounts of the UV filters and odorants found in the extracts are compared with one another (relative partition parameters). The analytical results are then used mathematically as described above.

[2] = W/O emulsion, substantivity on skin model (water resistance, watering test); type: physicochemical, sheep; conditions: amount found after 20 min watering relative to unwatered sample, isopropanol extract, GC, converted to the logarithm
Protocol: as §1, §2

Structure (SMILES)	Activity (logarithmic partition parameter for substantivity on a skin model) [1]	Activity (logarithmic partition parameter for substantivity on a skin model) [2]
C[C@@H]1CC[C@H]2C(C)(C)[C@H]3C[C@@]12CC[C@@]3(C)O [Cedrol]	−0.0320	−0.0111
COc1ccc(C(=O)c2ccccc2)c(O)c1 [Neo Heliopan ® BB, Benzophenone-3]	−0.1595	−0.2689
COc1ccc(C(=O)CC(=O)c2ccc(C(C)(C)C)cc2)cc1 [Neo Heliopan ® NH 357]	−0.1922	−0.1879
CC(C=O)Cc1ccc(C(C)(C)C)cc1 (centres unmarked) [Lilial]	−0.1280	−0.2120
O=C(OCc1ccccc1)c1ccccc1O [Benzyl salicylate]	−0.1300	−0.1480
CCCCCC/C(C=O)=C\c1ccccc1 [Hexylcinnamaldehyde, alpha]	−0.1250	−0.1399
CC(C)CCOC(=O)c1ccccc1O [Isoamyl salicylate]	−0.0960	−0.2740
CC1=CCC2CC1C2(C)C (stereo not drawn) [alpha-Pinene]	–	−0.2470
COc1ccc(C=CC(=O)OCCC(C)C)cc1 [Neo Heliopan ® E1000, Isoamyl p-Methoxycinnamate]	−0.0762	−0.2128
C=C1C2CCC(C2)C1(C)C (centres unmarked) [Camphene]	–	−0.2420
Cc1ccc(C=C2C(=O)C3(C)CCC2C3(C)C)cc1 (centres unmarked) [Neo Heliopan ® MBC, 4-Methylbenzylidene Camphor]	−0.0966	−0.2018
CCCCC(CC)COC(=O)c1ccccc1O (centres unmarked) [Neo Heliopan ® OS, 2-Ethylhexylsalicylate]	−0.1464	−0.2497
CC1CCC(C(C)C)C(OC(=O)c2ccccc2N)C1 (centres unmarked) [Neo Heliopan ® MA, Menthyl anthranilate]	−0.1314	−0.2300
CC1CC(OC(=O)c2ccccc2O)CC(C)(C)C1 (centres unmarked) [Neo Heliopan ® HMS, Homosalate]	−0.1571	−0.2733
CC(=O)O[C@]1(C)CC[C@@]23C[C@@H]1C(C)(C)[C@@H]2CC[C@H]3C [Cedryl acetate]	−0.0330	−0.0170
CC(=O)/C=C/C1C(C)=CCCC1(C)C (stereo not drawn) [Ionone alpha]	–	−0.0120
O=C1CCCCCCCCCCCC(=O)OCCO1 [Ethylene brassylate]	0.0010	−0.0476
CC(=O)/C=C/C1=C(C)CCCC1(C)C [Ionone, beta]	–	0.1556
